Results on eleven compounds are retold here after paper PMC4595045 (Journal of medicinal chemistry, 2013).

The target in test [1] is T1, CaV1.3 LTCCs (Rattus norvegicus, UniProt P27732). The conditions noted are these: more potent than 6; ref previous study; cited from earlier work.
Test [2] concerns the target T1, CaV1.3 LTCCs. In words: FLIPR Fluo-8 calcium influx assay, HEK293 cells stably expressing CaV1.3. Type of test: cell-based. The conditions noted are these: for Selectivity, ratio of the IC50 values (CaV1.2/CaV1.3): CaV1.3 over CaV1.2; for binding to CaV1.3 LTCCs (in words): bulky bicyclic ring analogues; for binding affinity for CaV1.3 LTCCs (in words): even at 100 µM.

A further test addresses CaV1.2 LTCCs (Oryctolagus cuniculus, UniProt P15381). In words: FLIPR Fluo-8 calcium influx assay, HEK293 cells stably expressing CaV1.2. Type of test: cell-based, rabbit. As to conditions: for binding to CaV1.2 LTCCs (in words): bulky bicyclic ring analogues; for binding affinity for CaV1.2 LTCCs (in words): even at 100 µM.

Chain of CaV1.2 LTCCs (P15381 whole entry): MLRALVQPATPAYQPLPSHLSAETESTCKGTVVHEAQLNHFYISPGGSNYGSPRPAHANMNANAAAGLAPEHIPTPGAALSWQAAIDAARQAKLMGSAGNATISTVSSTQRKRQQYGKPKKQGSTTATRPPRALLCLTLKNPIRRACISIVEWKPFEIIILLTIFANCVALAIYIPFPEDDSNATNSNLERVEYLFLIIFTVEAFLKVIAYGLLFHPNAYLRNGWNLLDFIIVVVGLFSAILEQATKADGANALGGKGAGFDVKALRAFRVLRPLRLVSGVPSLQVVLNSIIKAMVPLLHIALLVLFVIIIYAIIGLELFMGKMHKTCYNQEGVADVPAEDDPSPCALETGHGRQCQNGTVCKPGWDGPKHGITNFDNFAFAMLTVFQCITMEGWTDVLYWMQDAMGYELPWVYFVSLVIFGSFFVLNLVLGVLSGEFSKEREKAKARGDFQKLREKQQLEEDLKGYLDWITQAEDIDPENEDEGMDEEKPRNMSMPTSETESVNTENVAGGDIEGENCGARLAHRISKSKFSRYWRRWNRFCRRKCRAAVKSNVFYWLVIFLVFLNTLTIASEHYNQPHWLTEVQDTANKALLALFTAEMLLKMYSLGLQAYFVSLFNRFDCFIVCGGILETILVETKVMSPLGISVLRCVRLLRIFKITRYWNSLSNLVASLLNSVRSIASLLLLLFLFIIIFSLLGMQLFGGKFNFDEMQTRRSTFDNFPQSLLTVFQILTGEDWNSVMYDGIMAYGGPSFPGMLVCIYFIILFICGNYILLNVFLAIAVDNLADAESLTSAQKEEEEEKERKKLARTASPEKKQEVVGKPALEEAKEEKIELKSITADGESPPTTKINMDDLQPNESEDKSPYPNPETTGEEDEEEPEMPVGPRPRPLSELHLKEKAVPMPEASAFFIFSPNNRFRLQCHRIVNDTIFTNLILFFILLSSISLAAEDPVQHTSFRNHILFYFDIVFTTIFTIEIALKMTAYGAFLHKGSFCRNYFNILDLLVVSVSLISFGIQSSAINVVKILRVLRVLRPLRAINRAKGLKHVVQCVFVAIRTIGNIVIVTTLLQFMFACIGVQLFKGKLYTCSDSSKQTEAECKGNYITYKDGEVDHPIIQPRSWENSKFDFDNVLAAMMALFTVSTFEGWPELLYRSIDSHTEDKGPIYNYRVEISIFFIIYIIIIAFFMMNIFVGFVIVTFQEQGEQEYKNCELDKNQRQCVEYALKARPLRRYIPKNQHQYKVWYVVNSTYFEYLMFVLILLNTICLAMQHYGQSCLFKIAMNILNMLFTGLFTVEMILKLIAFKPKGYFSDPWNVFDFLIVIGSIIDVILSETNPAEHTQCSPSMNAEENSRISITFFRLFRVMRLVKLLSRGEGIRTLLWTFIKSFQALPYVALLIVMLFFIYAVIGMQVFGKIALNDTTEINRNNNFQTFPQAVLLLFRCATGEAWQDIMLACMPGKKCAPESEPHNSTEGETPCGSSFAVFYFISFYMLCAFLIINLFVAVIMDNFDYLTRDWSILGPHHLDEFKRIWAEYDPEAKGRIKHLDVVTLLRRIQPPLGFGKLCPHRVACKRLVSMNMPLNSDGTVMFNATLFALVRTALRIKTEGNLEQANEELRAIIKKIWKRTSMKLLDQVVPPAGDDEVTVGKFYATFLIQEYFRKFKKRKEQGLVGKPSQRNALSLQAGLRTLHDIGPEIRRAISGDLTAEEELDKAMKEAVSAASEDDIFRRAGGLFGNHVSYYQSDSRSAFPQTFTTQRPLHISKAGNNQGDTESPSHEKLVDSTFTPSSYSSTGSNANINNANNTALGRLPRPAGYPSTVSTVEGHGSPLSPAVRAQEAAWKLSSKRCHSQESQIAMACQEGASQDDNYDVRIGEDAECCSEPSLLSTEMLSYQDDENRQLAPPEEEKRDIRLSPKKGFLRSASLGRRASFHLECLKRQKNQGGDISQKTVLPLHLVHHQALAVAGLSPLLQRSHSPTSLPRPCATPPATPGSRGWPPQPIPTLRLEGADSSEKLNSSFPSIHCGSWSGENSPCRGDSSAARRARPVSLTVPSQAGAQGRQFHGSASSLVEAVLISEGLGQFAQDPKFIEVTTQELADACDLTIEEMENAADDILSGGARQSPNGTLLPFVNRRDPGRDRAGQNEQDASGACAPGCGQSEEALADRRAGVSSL
Chain of CaV1.2 LTCCs (P54287 whole entry partner): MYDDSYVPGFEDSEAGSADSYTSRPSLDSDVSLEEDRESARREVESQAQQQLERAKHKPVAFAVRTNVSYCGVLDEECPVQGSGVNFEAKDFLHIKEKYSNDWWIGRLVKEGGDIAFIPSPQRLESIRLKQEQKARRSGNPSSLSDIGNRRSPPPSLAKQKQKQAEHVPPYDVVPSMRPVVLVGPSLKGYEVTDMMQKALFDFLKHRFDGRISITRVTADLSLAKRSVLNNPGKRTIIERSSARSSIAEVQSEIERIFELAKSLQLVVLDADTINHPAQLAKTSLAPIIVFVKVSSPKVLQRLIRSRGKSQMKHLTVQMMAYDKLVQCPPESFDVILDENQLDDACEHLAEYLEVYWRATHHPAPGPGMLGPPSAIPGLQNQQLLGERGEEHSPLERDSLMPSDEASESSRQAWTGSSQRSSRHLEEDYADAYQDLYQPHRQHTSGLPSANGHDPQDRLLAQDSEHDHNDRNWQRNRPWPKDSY
Chain of CaV1.2 LTCCs (P54290 25-944 partner): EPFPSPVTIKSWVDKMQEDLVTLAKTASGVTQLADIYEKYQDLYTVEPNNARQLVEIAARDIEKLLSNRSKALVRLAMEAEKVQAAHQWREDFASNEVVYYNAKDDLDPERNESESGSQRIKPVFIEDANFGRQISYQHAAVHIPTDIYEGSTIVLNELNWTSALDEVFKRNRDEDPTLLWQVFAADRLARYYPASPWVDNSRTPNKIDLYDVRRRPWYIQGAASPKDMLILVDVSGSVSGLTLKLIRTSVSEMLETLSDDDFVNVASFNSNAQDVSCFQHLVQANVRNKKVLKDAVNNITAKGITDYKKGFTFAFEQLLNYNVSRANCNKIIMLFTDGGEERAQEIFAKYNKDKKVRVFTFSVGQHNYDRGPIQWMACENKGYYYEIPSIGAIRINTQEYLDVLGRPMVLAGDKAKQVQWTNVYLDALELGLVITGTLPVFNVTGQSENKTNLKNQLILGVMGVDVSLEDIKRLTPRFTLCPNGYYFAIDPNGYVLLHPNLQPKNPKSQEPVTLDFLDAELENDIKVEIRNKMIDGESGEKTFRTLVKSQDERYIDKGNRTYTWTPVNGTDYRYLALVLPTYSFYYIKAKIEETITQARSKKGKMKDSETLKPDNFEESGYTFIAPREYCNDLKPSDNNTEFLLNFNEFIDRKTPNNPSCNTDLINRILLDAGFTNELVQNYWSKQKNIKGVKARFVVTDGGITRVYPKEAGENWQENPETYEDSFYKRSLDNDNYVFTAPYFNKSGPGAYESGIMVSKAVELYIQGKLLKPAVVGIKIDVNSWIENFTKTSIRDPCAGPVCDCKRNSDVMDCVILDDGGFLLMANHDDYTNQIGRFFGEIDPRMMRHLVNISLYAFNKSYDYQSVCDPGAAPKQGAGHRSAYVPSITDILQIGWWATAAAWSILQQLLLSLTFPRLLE
Chain of CaV1.2 LTCCs (P54290 945-1091 partner): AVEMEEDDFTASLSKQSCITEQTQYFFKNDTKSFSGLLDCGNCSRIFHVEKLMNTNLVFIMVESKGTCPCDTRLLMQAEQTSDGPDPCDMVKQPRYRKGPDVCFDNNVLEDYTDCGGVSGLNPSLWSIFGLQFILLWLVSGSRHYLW

In the case of `O=C1CC(=O)N(C2CC3CCC2C3)C(=O)N1CCc1ccc(Cl)cc1` (mixture of isomers) [Compound 7, N-(4-chlorophenethyl)-N′-(±)-endo-norbornylpyrimidine-2,4,6-(1H,3H,5H)-trione], the “potency toward CaV1.3 LTCC relative to 6” value at CaV1.3 LTCCs [1] is recorded as 3 fold.

`C[C@@H](C1CCCCC1)N1C(=O)CC(=O)N(CCc2ccc(Cl)cc2)C1=O` [Compound 44, (S)-1-(4-Chlorophenethyl)-3-(1-cyclohexylethyl)pyrimidine-2,4,6(1H,3H,5H)-trione]: the “Selectivity, ratio of the IC50 values (CaV1.2/CaV1.3)” value (from here on “Selectivity, ratio of the IC50 values”) at CaV1.3 LTCCs [2] is over 12.

In the case of `C[C@H](C1CCCCC1)N1C(=O)CC(=O)N(CCc2ccc(Cl)cc2)C1=O` [Compound 46, (R)-1-(4-Chlorophenethyl)-3-(1-cyclohexylethyl)pyrimidine-2,4,6(1H,3H,5H)-trione], the “Selectivity, ratio of the IC50 values” value at CaV1.3 LTCCs [2] is over 12.

Regarding `O=C1CC(=O)N([C@H]2C[C@H]3CC[C@@H]2C3)C(=O)N1CCc1cccc(Cl)c1` [Compound 49, 1-((1R,2S,4S)-Bicyclo[2.2.1]heptan-2-yl)-3-(3-chlorophenethyl)pyrimidine-2,4,6(1H,3H,5H)-trione], the “Selectivity, ratio of the IC50 values” value at CaV1.3 LTCCs [2] was over 29.

`CC1(C)[C@@H]2CC[C@@]1(C)[C@@H](N1C(=O)CC(=O)N(CCc3cccc(Cl)c3)C1=O)C2` [Compound 53]: the “binding to CaV1.3 LTCCs (in words)” value at CaV1.3 LTCCs [2] was “almost no binding”. The “binding to CaV1.2 LTCCs (in words)” value at CaV1.2 LTCCs was “almost no binding”.

In the case of `CC1(C)[C@@H]2CC[C@@]1(C)[C@@H](N1C(=O)CC(=O)N(CCc3ccc(Cl)cc3)C1=O)C2` [Compound 54], the “binding to CaV1.3 LTCCs (in words)” value on CaV1.3 LTCCs [2] is on record as “almost no binding”. For the same compound, the “binding to CaV1.2 LTCCs (in words)” value at CaV1.2 LTCCs is reported as “almost no binding”.

For `CC1(C)[C@@H]2CC[C@H](CN3C(=O)CC(=O)N(CCc4cccc(Cl)c4)C3=O)[C@H]1C2` [Compound 55], the “binding to CaV1.3 LTCCs (in words)” value on CaV1.3 LTCCs [2] is “almost no binding”. Besides, on CaV1.2 LTCCs, the “binding to CaV1.2 LTCCs (in words)” value is on record as “almost no binding”.

On to `CC1(C)[C@@H]2CC[C@H](CN3C(=O)CC(=O)N(CCc4ccc(Cl)cc4)C3=O)[C@H]1C2` [Compound 56], for which the “binding to CaV1.3 LTCCs (in words)” value on CaV1.3 LTCCs [2] is reported as “almost no binding”. Also, the “binding to CaV1.2 LTCCs (in words)” value at CaV1.2 LTCCs is listed as “almost no binding”.

Consider `O=C1CC(=O)N([C@H]2CCNC2)C(=O)N1CCc1cccc(Cl)c1` [Compound 65], for which the “binding affinity for CaV1.3 LTCCs (in words)” value on CaV1.3 LTCCs [2] is given as “no binding affinity”. On CaV1.2 LTCCs, the “binding affinity for CaV1.2 LTCCs (in words)” value is “no binding affinity”.

Take `O=C(O)[C@H]1CC[C@@H](N2C(=O)CC(=O)N(CCc3cccc(Cl)c3)C2=O)C1` [Compound 67]: the “binding affinity for CaV1.3 LTCCs (in words)” value at CaV1.3 LTCCs [2] was “no binding affinity”. Further, the “binding affinity for CaV1.2 LTCCs (in words)” value on CaV1.2 LTCCs is listed as “no binding affinity”.

For the compound `O=C1CC(=O)N([C@H]2CCC[C@@H]2O)C(=O)N1CCc1cccc(Cl)c1` [Compound 69], at CaV1.3 LTCCs [2], the “binding affinity for CaV1.3 LTCCs (in words)” value is on record as “no binding affinity”. Moreover, the “binding affinity for CaV1.2 LTCCs (in words)” value on CaV1.2 LTCCs is given as “no binding affinity”.
